Source: a melting point compilation (Tetko et al.; mined from patent text by program, amines drawn as free bases though some values may be those of a salt)

melting point [°C] | SMILES
103 to 104 | CCCCCCCCCCCCCCCCCCC(N)C(N)=O (configuration not stated)
109 to 111 | O=C1N(Cc2c[nH]c3ccccc23)CCCC12CCN(c1cnc3ccccc3n1)CC2
181 to 182 | Cn1cc(C=O)c(-c2ccc([N+](=O)[O-])o2)n1
83 to 84 | CC(=O)OCc1ccc(N)cc1
169 to 170 | CCOC(=O)c1cc([N+](=O)[O-])c2ccccn2c1=O
168 to 170 | OCC1OC(n2c(Cl)nc3c(Br)c(Br)c(Br)cc32)C(O)C1O (configuration not stated)
146 to 147 | CON=C1C(c2ccccc2)=C(c2ccc(S(C)(=O)=O)cc2)C1(C)C
160 to 163 | CN(C)C(CC(F)C(=O)c1ccccc1)N1CCC(O)(c2ccc(Cl)cc2)CC1 (configuration not stated)
195 to 196 | O=c1oc2ccccc2cc1S(=O)(=O)Cc1ccc(Cl)cc1
118 to 119 | CCOC(=O)CN1CC(=O)N(C)c2ccc(N)cc2C1=O
203 to 206 | COc1nc2cc(Cl)c(Cl)c(N(CC(=O)O)S(C)(=O)=O)c2nc1OC
117 to 120 | CC1(C)OC[C@H](Cc2ccccc2)N1C(=O)Cn1cc(I)cn1
107 to 109 | O=C(Nc1ccccc1-c1nnn[nH]1)C(=O)N1CCC(Cc2ccc(F)cc2)CC1
138 to 139 | NC(Cc1ccccc1)C(=O)CCC(=O)O (configuration not stated)
43 to 45 | CC(=O)OCC(=O)c1ccc(C)cc1C
125 | CN(C)CCN(C)CC(=O)N1c2ccccc2N(C)C(=O)c2cnc(-c3ccccc3)nc21
177 to 179 | O=C(O)c1ccc(I)nc1
142 to 144 | Cc1cc(O)ccc1NCCCCCCBr
59 to 60 | O=C1CC(=O)OC2(O1)SC=CS2
143 to 145 | O=C(/C=C/C=C/c1cccc2ccccc12)NCCCCCC(=O)NO
311 to 313 | COc1cc(OC)c(OC)cc1C=C1CCc2c1oc1ccc(C(=O)O)cc1c2=O
84 to 86 | C=CCC1Oc2ccccc2-c2c(OC)cc3c(c21)C(C)=CC(C)(C)N3 (configuration not stated)
75 to 76 | CC(=O)c1ccc2c(c1)SC(C)(C)S2
110 to 112 | O=C(NCC(F)(F)F)C1CC(=O)N(Cc2ccccc2)C1 (configuration not stated)
97 to 101 | O=C1NCCN1CC#CCn1ccnc1

melting point [°C] | SMILES
211 to 213 | O=C(CC12CC3CC(CC(C3)C1)C2)Nc1cccc2[nH]ccc12
204 | Cc1ccc2cccc(OCc3c(Cl)ccc(S(=O)(=O)N(C)Cc4cccc(C(=O)O)c4)c3Cl)c2n1
130 | CC(=O)Nc1nc(CCc2ccc(CON)cc2)cs1
94 to 95 | O=C(OC1CCCCC1=O)c1cccc2ccccc12 (configuration not stated)
95 to 101 | CC1(C)C=Cc2c(ccc3c2OCC2(O)c4ccc(O)cc4OC32)O1 (single isomer, unassigned; (-))
216 to 218 | CN(C)c1ccc(NC(=O)CCn2c(-c3ccc(Cl)cc3)nc3cccnc32)cc1
180 to 181 | Cc1cc(C2CCN(S(=O)(=O)C3(C(=O)NO)CCN(C(=O)OC(C)(C)C)CC3)CC2)ccc1-c1cccc(OCCO)n1
164 to 167 | Cn1nc(-c2cccc(Cl)c2)cc1C(=O)O
52 | CC(=O)CC(=O)NC1CCCC1
132 to 134 | COc1ccc2c(c1)OC(CNCCCOc1cnc3ccccc3c1)CC2 (configuration not stated)
79 to 83 | C[C@@H](NC(=O)c1noc(-c2ccc(Cl)cc2)n1)[C@](O)(Cn1cncn1)c1ccc(F)cc1F
311 to 314 | NS(=O)(=O)c1ccc2nc(C(F)(F)F)[nH]c(=O)c2c1
73 | CCn1c(CCCO)nc(C(C)C)c1Sc1cc(Cl)cc(Cl)c1
103 to 105 | CCCCc1oc2ccccc2c1C(=O)NCc1ccc2c(-c3ccc(C)cc3)c(O)ccc2c1
57 to 58 | CCOC(=O)C=C(C)Nc1ccc(OC)c(OC)c1
178 to 179 | CCCCC(CC)C(=O)NC(=S)Nc1nc(-c2ccc3c(c2)CCCC3)cs1 (configuration not stated)
209 to 211 | c1ccc2c(c1)[nH]c1nc(N3CCCC3)nc(N3CCCC3)c12
109 to 110 | N[C@@H](Cc1ccc(Cl)c(OC(F)(F)C(F)F)c1)[C@H](O)c1ccc(F)cc1 (racemic)
126 to 127 | CCCN1C(=O)C(NC(=O)Nc2cccc(C)c2)N=C(N(C)C2CCCCC2)c2ccccc21 (single isomer, unassigned; (+))
295 to 300 | CCCN1NCc2c(C3C(=O)Nc4ccc(Br)cc43)ncnc21 (configuration not stated)
137 to 138 | O=C(Nc1ccc(Oc2ccccc2)cc1)N1CCN(c2ncnc3cc(OCc4ccccc4)c(OCc4ccccc4)cc23)CC1
247 to 249 | CCn1c(=O)[nH]c2cc(NC(C)=O)ccc21
157 to 159 | CNc1nc(-c2cccc(NC(=O)c3ccc(Cl)nc3)c2)c2cc(OC)c(OC)cc2n1
185 to 187 | CC(=O)OC(C)c1nccc2[nH]c(=O)ccc12 (configuration not stated)
80 to 81 | COC(=O)CCCCC1C(C(=O)OC)=C(C)NC(C)=C1C(=O)OC

melting point [°C] | SMILES
172 to 173 | O=c1c(Br)c(OCc2ccc(Cl)cc2F)cnn1-c1ccc(Cl)c(Cl)c1
195 to 203 | CCOC(=O)NN=Cc1nc[nH]c1C
155 to 157 | CCOC(=O)Cc1ccc(NC(=O)C(Cn2ccnc2)NS(=O)(=O)c2ccc(F)cc2)cc1 (racemic)
91.5 to 92.5 | CN(C)CCn1c(-c2ccc(Cl)cc2)cc2c1CCSC2
156 | C=CCOc1cc(-c2cc(=O)c3c(OC)cc(OCC4=COC(C)(C)O4)cc3o2)ccc1OC
213 to 214 | CC1Nc2cc(N(C)C(=O)c3ccc(-c4ccccc4)cc3)ccc2N1C (configuration not stated)
198 to 200 | Cc1cnc2sc(S(=O)(=O)c3ccccc3)nn2c1=O
189 to 191 | c1cn(Cc2ccc(OCc3nnn[nH]3)cc2)cn1
194 to 195 | Cc1nc(N(C)c2cccnc2)sc1-c1ccnc(Nc2ccc(N3CCOCC3)cc2)n1
172 | CC(C)(C)OC(=O)N1CCN(C2CCN(c3ccc(N)cc3C#N)CC2)CC1
183 | NCC#Cc1cnc2c(c1)N(Cc1cc(Cl)ccc1Cl)CCN2
128 to 131 | COc1ccccc1NC(=O)Cc1ccccc1
151 to 157 | C#CCOc1cc(C(=O)O)n(-c2ncc(Cl)cc2Cl)n1
176 to 177 | COC(=O)C1=NC2=COc3cc(C)ccc3N2C1C(=O)O (configuration not stated)
112 | CC(C)c1ccc(S(=O)(=O)n2c(CO)cc3cc(C(F)(F)F)ccc32)cc1
143 | COC(=O)Cc1nsc(NC(=O)c2ccccc2)n1
224 to 226 | O=C1NC2(CCCc3sccc32)c2ccccc21 (configuration not stated)
96 to 97 | COc1ccc(-n2nc(C(C)C)cc2-c2ccc(OCCNS(C)(=O)=O)cc2)cn1
167 to 169 | Clc1ccc2c(c1)N=C(NCc1cccnc1)c1ccccc1O2
255 to 257 | CC(=Cc1ccc(C(=O)O)cc1)c1ccc2c(c1)SCCC2(C)C
156 to 157 | Cc1cnccc1-c1sc(NC(=O)c2ccncc2)nc1-c1ccco1
111 to 113 | CCC(C)(C)N1C(=O)C2(COc3cc4c(cc32)OCCO4)c2ccccc21 (configuration not stated)
185 to 186 | Cn1nnnc1C(C=O)=C(c1ccccc1)c1ccccc1
114 to 116 | CSc1cc2c(cc1C(F)(F)F)N(C(=O)Nc1cccc(C(=O)NN3CCC(N(C)C)C3)c1)CC2 (configuration not stated)
114 to 116 | CC(C)Oc1ccc2c(c1O)OC(C)(C)CC2=O

melting point [°C] | SMILES
86.2 | Cc1ccc(S(=O)(=O)N2CCCN(c3cccc(C)c3C)CC2)cc1
129 to 130 | CCOC(=O)C(O)=Cc1cc(CCc2ccc(F)cc2)ccn1
95 to 96 | COc1ccc2c(CCC3CCN(C(=O)OC(C)(C)C)CC3)noc2c1
93 to 94 | CC1CC(C)(C)C(O)(CO)C1Cc1ccc(Cl)cc1 (configuration not stated)
175 to 178 | CS(=O)(=O)c1cc(S(N)(=O)=O)sc1CO
171 to 172 | CNC(=O)c1ccc(-c2ccc(OC)c(-c3cccc([N+](=O)[O-])c3)c2)cc1
181 to 182 | CC(C)(C)c1cc(Cl)cc(CO[C@H]2CCCN(Cc3nc(=O)[nH][nH]3)[C@H]2c2ccccc2)c1
112 to 114 | O=C1CCC(c2c[nH]c3ccc(F)cc23)CC1
56 to 57 | CC(=O)Sc1ccc(I)cc1
159 to 161 | CC(C)c1ccc(N(C)C)c(C(C)C)c1NC(=O)CN1CCN(CCSc2nc3ccccc3o2)CC1
178 to 180 | Cc1cc(=O)[nH]c2ccc(OCCCN3CCN(Cc4ccc(F)cc4)CC3)cc12
213 to 215 | COc1ccc(C(=O)N2C(C)Cc3ccccc3C2CNC(=O)c2cc(OC)c(OC)c(OC)c2)cc1 (configuration not stated)
203 to 205 | CNC(=O)c1cc(C(=O)O)c2cc(Cc3ccc(F)cc3)cnc2c1O
170 to 173 | O=C(c1ccc(Br)cc1)N1CCN(CCCN2CCN(C(=O)c3ccc(Br)cc3)CC2)CC1
64 to 69 | CC(C)(C)OC(=O)NCC1=CC(c2ccccc2)Cc2c1ccc(OC(=O)C(C)(C)C)c2OC(=O)C(C)(C)C (configuration not stated)
134 to 136 | COc1cc2ccccc2cc1N(C)C(=O)N1CCN(c2cc(C)cc(C)c2)CC1
136 to 138 | COC(=O)c1cc(C)cc2c1OCc1ccccc1C2C(=O)Nc1c(C(C)C)cccc1C(C)C (configuration not stated)
249 to 250 | O=C(O)CN1CCN2c3ccccc3Cn3cccc3C2C1 (configuration not stated)
288 to 289 | CC(C)(C)c1ccc(C(=O)Nc2cn3cc(-c4cccnc4)ccc3n2)cc1
123 to 124 | CCOc1cc(Oc2cc(C)[nH]n2)ccc1[N+](=O)[O-]
189 to 190 | N=C(NCCCOc1cccc2[nH]c3ccccc3c12)c1cccs1
101 to 102 | OCc1ccc2ccccc2c1Br

SMILES | melting point [°C]
CN1CCc2c(Cl)c(O)c(O)c(Sc3ccccc3)c2CC1 | 173 to 174
O=C(Cn1cnnn1)N(O)CCCP(=O)(O)O | 157 to 159
O=[N+]([O-])c1ccc2c(c1)C(c1ccccc1Cl)=NCc1nc(CO)cn1-2 | 173 to 174
CC(O)C#Cc1ncn2c1CN(C)C(=O)c1c(Cl)cccc1-2 (configuration not stated) | 251 to 252
CC(C)(c1ccc(OC#N)cc1)c1ccc(OC#N)cc1 | 82
